Results reported in paper PMC7444660 (ACS chemical neuroscience, 2020).

Legend:
PDE4B1 (S133D) = PDE4B1 (S133D) (Homo sapiens, UniProt Q07343, S133D/S659A/S661A); experiment: PDE4 enzyme inhibition assay, counter-screen; format: biochemical
[1] = Mouse iv cassette pharmacokinetics, brain uptake; format: in vivo, CD1 mice; details: intravenous dosing; SUV = brain Cmax (ng/mL)/dose (mg/kg)/1000
[2] = Radioligand lipophilicity; format: physicochemical; details: n-octanol/sodium phosphate buffer, pH 7.4
[3] = system: panel of GPCRs and other binding sites; experiment: NIMH Psychoactive Drug Screening Panel
[4] = molecular target: serotonin 5-HT2B receptor (Homo sapiens, UniProt P41595); experiment: NIMH Psychoactive Drug Screening Panel, hit; format: binding
PDE4D [5] = experiment: PET imaging in monkey brain, baseline and preblock; format: in vivo, rhesus monkeys (Macaca mulatta)
PDE4D [6] = molecular target: PDE4D (Homo sapiens, UniProt Q08499); experiment: PET imaging in human brain; format: in vivo; details: po, read-out: occupancy of the target enzyme
Human PDE4D7* (S129D) = Human PDE4D7* (S129D) (Homo sapiens, UniProt Q08499, S190D/S715A/S717A); experiment: PDE4 enzyme inhibition assay
Sequence of Human PDE4D7* (S129D) (Q08499 1-748 isoform Q08499-11 S129D/S654A/S656A): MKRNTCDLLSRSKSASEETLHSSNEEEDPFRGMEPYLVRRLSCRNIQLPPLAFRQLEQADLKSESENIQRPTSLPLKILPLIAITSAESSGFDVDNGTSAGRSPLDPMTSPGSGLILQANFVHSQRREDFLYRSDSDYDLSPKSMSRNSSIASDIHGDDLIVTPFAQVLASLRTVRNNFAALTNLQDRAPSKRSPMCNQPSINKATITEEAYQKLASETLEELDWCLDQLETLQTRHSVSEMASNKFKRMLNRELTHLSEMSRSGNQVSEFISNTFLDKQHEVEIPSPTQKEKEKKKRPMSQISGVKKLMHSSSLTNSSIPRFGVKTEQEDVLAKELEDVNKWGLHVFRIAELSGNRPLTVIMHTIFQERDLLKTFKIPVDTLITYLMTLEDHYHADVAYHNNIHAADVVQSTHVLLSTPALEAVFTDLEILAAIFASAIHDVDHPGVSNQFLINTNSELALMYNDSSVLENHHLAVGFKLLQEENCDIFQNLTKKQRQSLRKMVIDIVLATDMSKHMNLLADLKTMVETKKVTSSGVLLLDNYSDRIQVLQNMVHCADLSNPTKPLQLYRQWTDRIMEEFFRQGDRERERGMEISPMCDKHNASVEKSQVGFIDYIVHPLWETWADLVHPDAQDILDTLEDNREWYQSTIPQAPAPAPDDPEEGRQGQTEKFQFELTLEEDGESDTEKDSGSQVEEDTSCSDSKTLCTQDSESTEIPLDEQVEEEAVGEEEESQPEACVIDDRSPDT

Sequence of PDE4B1 (S133D) (Q07343 whole entry S133D/S659A/S661A): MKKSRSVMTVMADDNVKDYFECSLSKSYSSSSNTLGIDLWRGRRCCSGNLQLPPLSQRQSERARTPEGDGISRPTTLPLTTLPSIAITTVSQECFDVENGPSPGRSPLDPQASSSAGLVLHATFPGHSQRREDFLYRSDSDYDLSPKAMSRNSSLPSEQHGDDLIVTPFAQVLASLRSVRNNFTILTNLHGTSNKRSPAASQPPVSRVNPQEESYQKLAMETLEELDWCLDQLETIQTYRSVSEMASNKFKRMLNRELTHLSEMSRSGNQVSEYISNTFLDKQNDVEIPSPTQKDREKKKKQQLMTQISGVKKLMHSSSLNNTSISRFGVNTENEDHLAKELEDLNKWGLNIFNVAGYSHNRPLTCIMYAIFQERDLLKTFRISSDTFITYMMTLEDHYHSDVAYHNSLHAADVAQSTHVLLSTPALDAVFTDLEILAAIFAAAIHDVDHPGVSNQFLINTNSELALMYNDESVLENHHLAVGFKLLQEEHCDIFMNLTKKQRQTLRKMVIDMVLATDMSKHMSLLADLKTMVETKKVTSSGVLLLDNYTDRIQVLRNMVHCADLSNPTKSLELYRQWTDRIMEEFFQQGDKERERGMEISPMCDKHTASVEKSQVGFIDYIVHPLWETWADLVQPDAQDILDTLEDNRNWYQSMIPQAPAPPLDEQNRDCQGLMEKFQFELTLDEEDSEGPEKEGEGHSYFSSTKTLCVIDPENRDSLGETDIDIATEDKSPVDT
Sequence of PDE4D (Homo sapiens, UniProt Q08499) (Q08499 307-809 limits assumed): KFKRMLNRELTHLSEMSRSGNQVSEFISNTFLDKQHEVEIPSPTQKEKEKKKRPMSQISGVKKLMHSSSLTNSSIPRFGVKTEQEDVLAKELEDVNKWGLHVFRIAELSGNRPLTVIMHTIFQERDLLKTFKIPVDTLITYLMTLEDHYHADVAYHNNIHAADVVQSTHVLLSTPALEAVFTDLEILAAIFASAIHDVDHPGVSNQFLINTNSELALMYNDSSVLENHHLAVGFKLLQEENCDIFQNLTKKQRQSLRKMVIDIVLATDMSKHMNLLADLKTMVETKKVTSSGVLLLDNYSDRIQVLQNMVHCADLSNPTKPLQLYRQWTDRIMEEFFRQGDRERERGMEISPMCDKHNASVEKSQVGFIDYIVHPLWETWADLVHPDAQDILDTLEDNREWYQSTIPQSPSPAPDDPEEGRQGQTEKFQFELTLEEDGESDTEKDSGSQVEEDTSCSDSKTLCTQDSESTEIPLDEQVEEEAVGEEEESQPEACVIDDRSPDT
Sequence of serotonin 5-HT2B receptor (P41595 whole entry): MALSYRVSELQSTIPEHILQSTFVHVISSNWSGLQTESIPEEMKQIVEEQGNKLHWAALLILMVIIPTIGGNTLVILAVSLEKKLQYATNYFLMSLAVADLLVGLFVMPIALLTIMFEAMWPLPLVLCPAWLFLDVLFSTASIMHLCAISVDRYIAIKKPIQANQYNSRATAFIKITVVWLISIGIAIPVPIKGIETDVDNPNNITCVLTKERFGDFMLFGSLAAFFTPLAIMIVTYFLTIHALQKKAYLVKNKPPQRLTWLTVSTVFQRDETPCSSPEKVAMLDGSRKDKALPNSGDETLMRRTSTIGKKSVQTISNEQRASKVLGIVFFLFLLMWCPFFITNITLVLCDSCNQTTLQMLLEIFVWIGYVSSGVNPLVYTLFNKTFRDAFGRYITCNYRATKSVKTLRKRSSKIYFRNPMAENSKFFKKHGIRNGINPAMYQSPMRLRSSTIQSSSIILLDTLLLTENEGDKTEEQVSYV

Row | IC50 (PDE4B1 (S133D)) [nM] | SUV, brain uptake in mice [1] [SUV] | logD [2] | Compound | also measured
1 | 280 | 1.76 | 3.38 | COc1ccc(Cc2ccncc2)nc1-c1cccc([N+](=O)[O-])c1 [Compound 5, 3-methoxy-2-(3-nitrophenyl)-6-[(pyridin-4-yl)methyl]pyridine] | –
2 | 720 | 0.94 | 3.45 | COc1ccc(Cc2ccncc2)nc1-c1cccc(Cl)c1 [Compound 3, 2-(3-chlorophenyl)-3-methoxy-6-[(pyridin-4-yl)methyl]pyridine] | –
3 | – | – | – | COc1ccc(C2CNC(=O)C2)cc1OC1CCCC1 (centres unmarked) [rolipram] | PDE4D target occupancy (Lassen plot) (PDE4D [5]; radioligand [11C]T1650, blocking dose 0.2 mg/kg i.v.): 63%; PDE4D target occupancy (Lassen plot) (PDE4D [5]; radioligand [11C]T1650, blocking dose 1.0 mg/kg i.v.): 93%; PDE4D target occupancy (Lassen plot) (PDE4D [5]; radioligand [11C]T1660, rolipram 1.0 mg/kg i.v.): 79%
4 | – | – | – | O=C(O)Cc1ccc(Cc2cc(-c3cccc(Cl)c3)nc(C(F)(F)F)c2)cc1 [BPN14770] | PDE4D target occupancy (Lassen plot) (PDE4D [5]; radioligand [11C]T1650, blocking dose 3 mg/kg i.v.): 63%; receptor occupancy at 50 mg (PDE4D [6]): ~40%
5 | 858 | 1.44 | 3.07 | Cn1cc(Cc2ccc(OC(F)F)c(-c3cccc(Cl)c3)n2)cn1 [Compound 4, 2-(3-chlorophenyl)-3-(difluoromethoxy)-6-[(1-methyl-1H-pyrazol-4-yl)methyl]pyridine] | IC50 (Human PDE4D7* (S129D)): 0.5 nM

Row | Compound | IC50 (PDE4B1 (S133D)) [nM] | SUV, brain uptake in mice [1] [SUV] | logD [2] | also measured
6 | COc1ccc(Cc2cn[nH]c2)nc1-c1cccc([N+](=O)[O-])c1 [Compound 6] | 1120 | 1.76 | 2.89 | off-target binding activity [3]: did not reveal significant off-target binding activity; IC50 [4]: 766 nM
